Assay results reported in patent US20220235057A1, “CYCLIC FORMYL AND CYCLIC KETONE COMPOUNDS, PREPARATION METHOD THEREFOR, AND PHARMACEUTICAL USE” (priority 2019, published 2022).

Legend:
Format in all cases: cell-based
Zika virus (ZIKV) = test: anti-Zika virus activity (inhibition rate); settings: for inhibition at 11 µM / inhibition at 33 µM: Zika virus
Usutu virus (USUV) = test: anti-Usutu virus activity (inhibition rate); settings: for inhibition at 11 µM / inhibition at 33 µM: Usutu virus
[1] = test system: drug resistant strains of Acinetobacter baumannii; test: anti-drug resistant strains of Acinetobacter baumannii (inhibition zone)
[2] = resistant strain of Acinetobacter baumannii no. 16
[3] = resistant strain of Acinetobacter baumannii no. 17
[4] = resistant strain of Acinetobacter baumannii no. 18
[5] = resistant strain of Acinetobacter baumannii no. 19
[6] = resistant strain of Acinetobacter baumannii no. 20

SMILES | inhibition at 11 µM (Zika virus (ZIKV); Drug concentration 11 μM) | inhibition at 33 µM (Zika virus (ZIKV); Drug concentration 33 μM) | inhibition at 11 µM (Usutu virus (USUV); Drug concentration 11 μM) | inhibition at 33 µM (Usutu virus (USUV); Drug concentration 33 μM) | inhibition zone, diameter [1, 2] | inhibition zone, diameter [1, 3] | inhibition zone, diameter [1, 4] | inhibition zone, diameter [1, 5] | inhibition zone, diameter [1, 6] | also measured
O=C1[C@H]2CCc3ccccc3N2C(c2ccc(O)cc2)N1Nc1ccccc1 (stereo partly shown) [ZXD-86A] | < 0% | > 100% | < 0% | < 0% | – | – | – | – | – | –
O=C1[C@@H]2Cc3ccccc3N2[C@@H](c2ccc(O)cc2)N1NS(=O)(=O)c1ccc([N+](=O)[O-])cc1 [ZDL-39] | < 0% | 0 to 100% | < 0% | < 0% | – | – | – | – | – | –
O=C1C2CCc3ccccc3N2[C@@H](c2cccc3nonc23)N1Nc1ccccc1 (stereo partly shown) [ZXD-181A] | – | – | – | – | – | – | – | – | – | Anti-ZIKV activity (inhibition rate) (Zika virus (ZIKV); Drug concentration 11 μM): +++ (+++: Complete suppression); Anti-ZIKV activity (inhibition rate) (Zika virus (ZIKV); Drug concentration 33 μM): +++ (+++: Complete suppression); Anti-USUV activity (inhibition rate) (Usutu virus (USUV); Drug concentration 11 μM): − (−: Inactive); Anti-USUV activity (inhibition rate) (Usutu virus (USUV); Drug concentration 33 μM): + (+: Partial suppression)
O=C1C(c2ccccc2)C(c2ccc(O)cc2)N2CCC[C@@H]12 (stereo partly shown) [ZXP-10] | – | – | < 0% | 0 to 100% | – | – | – | – | – | –
O=C1[C@@H]2CCc3ccccc3N2[C@@H](c2ccc(O)cc2)N1c1ccc([N+](=O)[O-])cc1 [ZXD-121] | > 100% | – | < 0% | < 0% | – | – | – | – | – | –
O=C1[C@@H]2Cc3ccccc3CN2C(c2ccc(O)cc2)N1c1ccc([N+](=O)[O-])cc1 (stereo partly shown) [ZSD-7] | – | – | – | – | – | – | – | – | – | Anti-ZIKV activity (inhibition rate) (Zika virus (ZIKV); Drug concentration 11 μM): − (−: Inactive); Anti-ZIKV activity (inhibition rate) (Zika virus (ZIKV); Drug concentration 33 μM): +++ (+++: Complete suppression); Anti-USUV activity (inhibition rate) (Usutu virus (USUV); Drug concentration 11 μM): − (−: Inactive); Anti-USUV activity (inhibition rate) (Usutu virus (USUV); Drug concentration 33 μM): +++ (+++: Complete suppression)
CC1(C)OB(c2ccc(C3N(Nc4ccccc4)C(=O)[C@@H]4Cc5ccccc5CN34)cc2)OC1(C)C (stereo partly shown) [ZSD-32] | < 0% | < 0% | < 0% | 0 to 100% | – | – | – | – | – | –
O=C1C2CCc3ccccc3N2C(c2cc3ccccc3s2)N1Nc1ccccc1 (stereo not shown) [ZXD-178A] | – | – | – | – | – | – | – | – | – | Anti-ZIKV activity (inhibition rate) (Zika virus (ZIKV); Drug concentration 11 μM): +++ (+++: Complete suppression); Anti-USUV activity (inhibition rate) (Usutu virus (USUV); Drug concentration 11 μM): + (+: Partial suppression)
C=C1CC[C@@H]2[C@]3(C)COC(C)(C)O[C@@H]3CC[C@@]2(C)[C@@H]1C[C@H]1N(Nc2ccc([N+](=O)[O-])cc2)C(=O)[C@@H]2Cc3ccccc3N21 [ZDL-43] | > 100% | > 100% | > 100% | > 100% | – | – | – | – | – | –
COc1ccc(CC2N(Nc3ccccc3)C(=O)C3CCc4ccccc4N32)cc1OC (stereo not shown) [ZXD-140] | 0 to 100% | – | < 0% | > 100% | – | – | – | – | – | –
CC(C)(C)[Si](C)(C)Oc1ccc(C2N(Cc3ccccc3)C(=O)C3CCc4ccccc4N32)cc1 (stereo not shown) [ZXD-241B] | < 0% | > 100% | < 0% | > 100% | – | – | – | – | – | –
O=C(NNc1ccccc1)C1CCc2ccccc2N1C(=O)OCc1ccccc1 (stereo not shown) [ZXD-51] | – | – | – | – | – | – | – | – | – | Anti-ZIKV activity (inhibition rate) (Zika virus (ZIKV); Drug concentration 11 μM): − (−: Inactive); Anti-ZIKV activity (inhibition rate) (Zika virus (ZIKV); Drug concentration 33 μM): + (+: Partial suppression); Anti-USUV activity (inhibition rate) (Usutu virus (USUV); Drug concentration 11 μM): − (−: Inactive); Anti-USUV activity (inhibition rate) (Usutu virus (USUV); Drug concentration 33 μM): − (−: Inactive)
O=C1C2CCCC2C(c2ccccc2)N1c1ccc([N+](=O)[O-])cc1 (stereo not shown) [ZDL-61] | < 0% | 0 to 100% | < 0% | > 100% | – | – | – | – | – | –
CC(C)(C)[Si](C)(C)Oc1ccc(C2N(Nc3ccccc3)C(=O)C3CCc4ccccc4N32)cc1 (stereo not shown) [ZXD-131B] | < 0% | < 0% | 0 to 100% | – | – | – | – | – | – | –
COc1cc(CC2N(Nc3ccccc3)C(=O)C3CCCCN32)ccc1O (single isomer, unassigned) [ZKD-14B] | – | – | – | – | 54 mm | 53 mm | 34 mm | 68 mm | 68 mm | –
COc1ccc(CC2N(Nc3ccccc3)C(=O)C3CCCCN32)cc1OC (single isomer, unassigned) [ZKD-13A] | – | – | – | – | 68 mm | 68 mm | 68 mm | 64 mm | 68 mm | –
O=C(NN1C(=O)[C@@H]2Cc3ccccc3N2[C@H]1c1ccc([N+](=O)[O-])cc1)c1ccc([N+](=O)[O-])cc1 [ZDL-11] | < 0% | < 0% | < 0% | 0 to 100% | – | – | – | – | – | –
CC(C)(C)[Si](C)(C)Oc1cccc(C2N(Nc3ccccc3)C(=O)C3CCc4ccccc4N32)c1 (stereo not shown) [ZXD-147B] | > 100% | – | > 100% | – | – | – | – | – | – | –
O=C(NNc1ccc(F)cc1)c1ccc2cc[nH]c2c1 [ZBM-24] | – | – | – | – | 38 mm | 68 mm | 6 mm | 50 mm | 68 mm | –
O=C1C2CCc3ccccc3N2C(c2ccc(O)cc2)N1Nc1ccccc1 (single isomer, unassigned) [ZXD-86B] | – | – | – | – | – | – | – | – | – | Anti-ZIKV activity (inhibition rate) (Zika virus (ZIKV); Drug concentration 11 μM): + (+: Partial suppression); Anti-ZIKV activity (inhibition rate) (Zika virus (ZIKV); Drug concentration 33 μM): +++ (+++: Complete suppression); Anti-USUV activity (inhibition rate) (Usutu virus (USUV); Drug concentration 11 μM): +++ (+++: Complete suppression); Anti-USUV activity (inhibition rate) (Usutu virus (USUV); Drug concentration 33 μM): +++ (+++: Complete suppression)

SMILES | inhibition at 11 µM (Zika virus (ZIKV); Drug concentration 11 μM) | inhibition at 33 µM (Zika virus (ZIKV); Drug concentration 33 μM) | inhibition at 11 µM (Usutu virus (USUV); Drug concentration 11 μM) | inhibition at 33 µM (Usutu virus (USUV); Drug concentration 33 μM) | inhibition zone, diameter [1, 2] | inhibition zone, diameter [1, 3] | inhibition zone, diameter [1, 4] | inhibition zone, diameter [1, 5] | inhibition zone, diameter [1, 6] | also measured
O=C1C2Cc3ccccc3CN2C(c2ccc(O)c(O)c2)N1Nc1ccccc1 (stereo not shown) [ZSD-30A] | – | – | – | – | – | – | – | – | – | Anti-ZIKV activity (inhibition rate) (Zika virus (ZIKV); Drug concentration 11 μM): − (−: Inactive); Anti-ZIKV activity (inhibition rate) (Zika virus (ZIKV); Drug concentration 33 μM): − (−: Inactive); Anti-USUV activity (inhibition rate) (Usutu virus (USUV); Drug concentration 11 μM): − (−: Inactive); Anti-USUV activity (inhibition rate) (Usutu virus (USUV); Drug concentration 33 μM): +++ (+++: Complete suppression)
Cn1cncc1C(=O)NNc1ccc(F)cc1 [ZBM-30] | – | – | – | – | 45 mm | 68 mm | 45 mm | 68 mm | 68 mm | –
O=C1[C@@H]2Cc3ccccc3N2[C@@H](c2ccc([N+](=O)[O-])cc2)N1NS(=O)(=O)c1ccc([N+](=O)[O-])cc1 [ZDL-38] | < 0% | < 0% | < 0% | 0 to 100% | – | – | – | – | – | –
O=C(NNc1ccc(F)cc1)c1cc2ccc(Cl)cc2[nH]1 [ZBM-36] | – | – | – | – | 30 mm | 58 mm | 21 mm | 68 mm | 68 mm | –
O=C(Nc1ccc([N+](=O)[O-])cc1)C1CCc2ccccc2N1 (stereo not shown) [ZXD-53] | < 0% | 0 to 100% | < 0% | < 0% | – | – | – | – | – | –
O=C1[C@@H]2Cc3ccccc3N2[C@@H](c2ccc([N+](=O)[O-])cc2)N1Nc1ccccc1 [ZDL-19] | < 0% | 0 to 100% | < 0% | > 100% | – | – | – | – | – | –
O=C1[C@@H]2Cc3ccccc3CN2C(c2ccc(O)c(O)c2)N1c1ccc([N+](=O)[O-])cc1 (stereo partly shown) [ZSD-11] | < 0% | > 100% | < 0% | 0 to 100% | – | – | – | – | – | –
O=C1C2CCc3ccccc3N2C(c2ccc(CO)cc2)N1Nc1ccccc1 (stereo not shown) [ZXD-157B] | – | – | > 100% | – | – | – | – | – | – | –
COc1cc(CC2N(Nc3ccccc3)C(=O)C3CCCCN32)ccc1O (single isomer, unassigned) [ZKD-14A] | – | – | – | – | 68 mm | 68 mm | 45 mm | 64 mm | 68 mm | –
CC1(C)OC[C@]2(C)C(CC[C@@]3(C)[C@H](C[C@H]4N(NS(=O)(=O)c5ccc([N+](=O)[O-])cc5)C(=O)[C@@H]5Cc6ccccc6N54)C(=O)CC[C@@H]32)O1 (stereo partly shown) [ZDL-41] | – | – | – | – | – | – | – | – | – | Anti-ZIKV activity (inhibition rate) (Zika virus (ZIKV); Drug concentration 11 μM): +++ (+++: Complete suppression); Anti-USUV activity (inhibition rate) (Usutu virus (USUV); Drug concentration 11 μM): +++ (+++: Complete suppression)
COc1cc(C2N(Nc3ccccc3)C(=O)C3CCCCN32)ccc1O (stereo not shown) [ZKD-18B] | – | – | – | – | 68 mm | 68 mm | 68 mm | 68 mm | 68 mm | –
O=C1C2CCCCN2C(c2ccc(O)cc2)N1Nc1ccccc1 (single isomer, unassigned) [ZKD-4B] | – | – | – | – | 68 mm | 68 mm | 68 mm | 68 mm | 68 mm | –
O=C(NNc1ccc([N+](=O)[O-])cc1)[C@@H]1Cc2ccccc2CN1 [ZSD-15] | – | – | – | – | 44 mm | 40 mm | 68 mm | 68 mm | 40 mm | –
COc1ccc(CC2N(Nc3ccccc3)C(=O)C3CCCCN32)cc1O (single isomer, unassigned) [ZKD-12B] | – | – | – | – | 68 mm | 68 mm | 55 mm | 60 mm | 68 mm | –
COc1ccc([C@H]2N(Nc3ccccc3)C(=O)C3CCCCN32)cc1OC (stereo partly shown) [ZKD-6B] | – | – | – | – | 16 mm | 17 mm | 16 mm | 20 mm | 40 mm | –
Cn1cnc(C(=O)NNc2ccc(F)cc2)c1 [ZBM-29] | – | – | – | – | 51 mm | 68 mm | 48 mm | 68 mm | 68 mm | –
O=C1C2CCCCN2C(c2ccc(B(O)O)cc2)N1Nc1ccccc1 (stereo not shown) [ZKD-10A] | – | – | – | – | 56 mm | 53 mm | 55 mm | 48 mm | 68 mm | –
O=C(NNc1ccc(F)cc1)C1CCCCN1 (stereo not shown) [ZKD-17] | – | – | – | – | 67 mm | 68 mm | 36 mm | 68 mm | 68 mm | –
COc1ccc(C2N(Nc3ccccc3)C(=O)C3CCCCN32)cc1O (stereo not shown) [ZKD-19B] | – | – | – | – | 68 mm | 68 mm | 68 mm | 68 mm | 68 mm | –
